# Active and inactive are the calls of the source.
# What was measured:
# [1] = target: T1, Orexin/Hypocretin receptor type 1 (Homo sapiens, UniProt O43613); experiment: Fluorescence-based cell-based high throughput dose response assay for antagonists of the orexin 1 receptor (OX1R; HCRTR1). [Related pubchem assays (depositor defined):AID434989, AID435008, AID463079, AID485270, AID492963, AID492964, AID492965, AID493232, AID504717, AID504718]; format: functional
# [2] = target: T1, Orexin/Hypocretin receptor type 1; experiment: Homogeneous Time Resolved Fluorescence (HTRF)-based cell-based high throughput dose response assay for antagonists of the orexin 1 receptor (OX1R; HCRTR1). [Related pubchem assays (depositor defined):AID434989, AID435008, AID463079, AID485270, AID492963, AID492964, AID492965, AID493232, AID504717, AID504718]; format: functional
# [3] = system: CHO-K1; experiment: Counterscreen for antagonists of the orexin 1 receptor (OX1R; HCRTR1): Homogeneous time resolved fluorescence (HTRF)-based cell-based dose response assay to identify antagonists of the parental CHO-K1 cell line. [Related pubchem assays (depositor defined):AID434989, AID435008, AID463079, AID485270, AID492963, AID492964, AID492965, AID493232, AID504699, AID504701]; format: functional; conditions: Cricetulus griseus;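 note: potency for inhibition of ATP-stimulated IP1 production as antagonists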
# [4] = Counterscreen for antagonists of the orexin 1 receptor (OX1R; HCRTR1): Fluorescence-based cell-based high throughput dose response assay to identify antagonists of the parental CHO cell line. [Related pubchem assays (depositor defined):AID434989, AID435008, AID463079, AID485270, AID492963, AID492964, AID492965, AID493232, AID504699, AID504701]; format: functional
# [5] = target: T2, CAAX prenyl protease 2 (Saccharomyces cerevisiae S288c, UniProt Q03530); format: biochemical
# T2 sequence (Q03530 whole entry): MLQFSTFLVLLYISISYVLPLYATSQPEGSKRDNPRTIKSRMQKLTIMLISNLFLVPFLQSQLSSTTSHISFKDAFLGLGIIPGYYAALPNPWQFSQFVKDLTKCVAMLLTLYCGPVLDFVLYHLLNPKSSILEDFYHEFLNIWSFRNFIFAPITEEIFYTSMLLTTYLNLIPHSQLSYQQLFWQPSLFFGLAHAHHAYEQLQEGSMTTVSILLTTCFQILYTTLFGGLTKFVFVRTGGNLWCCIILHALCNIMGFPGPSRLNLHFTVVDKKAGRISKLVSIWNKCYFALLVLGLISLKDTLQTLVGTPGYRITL
# [6] = toxicity toward cultured mammalian cells – cell-based, plate reader, cherry-pick samples, cytotoxicity control, dose response (AID 504397); format: functional
# [7] = target: T3, Tyrosine-protein phosphatase non-receptor type 22 (Homo sapiens, UniProt Q9Y2R2); format: functional
# T3 sequence (Q9Y2R2 whole entry): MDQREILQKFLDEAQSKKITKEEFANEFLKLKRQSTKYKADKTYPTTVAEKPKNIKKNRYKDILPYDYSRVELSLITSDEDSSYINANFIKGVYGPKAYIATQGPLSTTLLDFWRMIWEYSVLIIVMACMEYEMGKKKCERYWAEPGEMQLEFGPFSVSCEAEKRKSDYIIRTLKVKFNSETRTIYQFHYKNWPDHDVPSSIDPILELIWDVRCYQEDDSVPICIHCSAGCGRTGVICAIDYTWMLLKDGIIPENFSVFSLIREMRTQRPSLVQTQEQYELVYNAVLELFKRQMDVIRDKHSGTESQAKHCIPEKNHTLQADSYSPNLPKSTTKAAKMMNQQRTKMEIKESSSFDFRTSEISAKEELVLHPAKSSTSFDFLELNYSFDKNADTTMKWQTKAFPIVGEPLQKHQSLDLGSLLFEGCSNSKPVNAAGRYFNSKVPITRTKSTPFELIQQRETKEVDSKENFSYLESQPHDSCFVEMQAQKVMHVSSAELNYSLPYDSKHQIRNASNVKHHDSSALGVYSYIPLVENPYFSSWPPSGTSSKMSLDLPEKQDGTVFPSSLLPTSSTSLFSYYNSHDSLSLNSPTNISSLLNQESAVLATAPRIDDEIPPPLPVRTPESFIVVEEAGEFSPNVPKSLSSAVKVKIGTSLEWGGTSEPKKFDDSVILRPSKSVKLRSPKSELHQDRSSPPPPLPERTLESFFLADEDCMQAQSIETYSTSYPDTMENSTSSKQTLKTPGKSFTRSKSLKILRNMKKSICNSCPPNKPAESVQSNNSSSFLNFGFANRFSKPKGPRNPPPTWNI
# [8] = target: T3, Tyrosine-protein phosphatase non-receptor type 22; format: functional; remark: listed apart in the source
# [9] = target: T4, Tyrosine-protein phosphatase non-receptor type 7 (Homo sapiens, UniProt P35236); format: functional
# T4 sequence (P35236 whole entry): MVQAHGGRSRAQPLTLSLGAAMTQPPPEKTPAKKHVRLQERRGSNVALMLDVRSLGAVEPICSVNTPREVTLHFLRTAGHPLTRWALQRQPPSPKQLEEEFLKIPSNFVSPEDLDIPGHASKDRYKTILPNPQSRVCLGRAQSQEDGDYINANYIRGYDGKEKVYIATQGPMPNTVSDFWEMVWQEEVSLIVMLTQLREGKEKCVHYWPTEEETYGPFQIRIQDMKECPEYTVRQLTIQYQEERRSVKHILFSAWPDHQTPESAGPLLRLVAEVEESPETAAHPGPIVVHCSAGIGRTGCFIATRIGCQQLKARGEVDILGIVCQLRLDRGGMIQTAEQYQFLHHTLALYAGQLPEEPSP
# [10] = target: T5, G-protein coupled receptor 55 (Homo sapiens, UniProt Q9Y2T6); experiment: blockade of LPI-induced GPR55 arrestin translocation – imaging, U2OS, beta-arrestin-GFP, LPI agonist, set 2, SAR follow-up (AID 2820); format: functional
# [11] = target: T6, Calpain-2 catalytic subunit (Sus scrofa, UniProt P43367); experiment: m-calpain protease blockers, concentration series – biochemical, fluorogenic peptide substrate, dose response (AID 1420); format: functional
# T6 sequence (P43367 whole entry): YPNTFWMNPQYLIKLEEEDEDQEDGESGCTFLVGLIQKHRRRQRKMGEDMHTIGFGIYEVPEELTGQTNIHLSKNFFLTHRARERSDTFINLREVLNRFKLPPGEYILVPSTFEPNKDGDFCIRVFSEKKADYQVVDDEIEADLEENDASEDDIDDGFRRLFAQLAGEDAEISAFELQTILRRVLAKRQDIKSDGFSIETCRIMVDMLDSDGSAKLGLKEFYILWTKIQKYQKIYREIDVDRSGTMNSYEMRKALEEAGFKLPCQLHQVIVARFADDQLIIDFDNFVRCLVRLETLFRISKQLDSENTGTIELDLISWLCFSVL
# [12] = target: T7, Probable nicotinate-nucleotide adenylyltransferase (Staphylococcus aureus (strain N315), UniProt P65502); format: functional, Staphylococcus aureus subsp. aureus N315; conditions: read-out: IC50_Mean;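 for IC50 Mean: confirmatory dose-response retesting of NadD inhibitor hits first found in an ultra-high-throughput screen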
# [13] = target: T5, G-protein coupled receptor 55; experiment: inhibition of LPI-stimulated GPR55 beta-arrestin translocation – imaging, U2OS, beta-arrestin-GFP, LPI agonist, primary screen (AID 2013); format: functional;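 note: antagonist potency measured as reduced agonist-driven arrestin aggregation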
# [14] = target: T8, G-protein coupled receptor 35 (Homo sapiens, UniProt Q9HC97); experiment: SAR analysis of Antagonists of the GPR35 Receptor using an Image-Based Assay - Set 3. [Related pubchem assays (depositor defined):AID2013, AID2026]; format: functional
# [15] = target: T8, G-protein coupled receptor 35; experiment: SAR analysis of Agonists of the GPR35 Receptor using an Image-Based Assay - Set 2. [Related pubchem assays (depositor defined):AID2013, AID2026]; format: functional
# [16] = target: T9, Cannabinoid receptor 2 (Homo sapiens, UniProt P34972); experiment: SAR analysis of antagonists of the Cannabinoid Receptor 2 using an Image-Based Assay. [Related pubchem assays (depositor defined):AID2013, AID2026]; format: functional
# [17] = target: T10, Cannabinoid receptor 1 (Homo sapiens, UniProt P21554); experiment: SAR analysis of antagonists of the Cannabinoid Receptor 1 using an Image-Based Assay - Set 2. [Related pubchem assays (depositor defined):AID2013, AID2026]; format: functional
# [18] = target: T9, Cannabinoid receptor 2; experiment: SAR analysis of agonists of the Cannabinoid Receptor 2 using an Image-Based Assay. [Related pubchem assays (depositor defined):AID2013, AID2026]; format: functional
# [19] = target: T10, Cannabinoid receptor 1; experiment: SAR analysis of agonists of the Cannabinoid Receptor 1 using an Image-Based Assay - Set 2. [Related pubchem assays (depositor defined):AID2013, AID2026]; format: functional
# [20] = target: T7, Probable nicotinate-nucleotide adenylyltransferase; format: functional, Staphylococcus aureus subsp. aureus N315
# [21] = target: T11, Sphingosine 1-phosphate receptor 4 (Homo sapiens, UniProt O95977); experiment: Fluorescence dose response cell-based high throughput screening assay for agonists of the Sphingosine 1-Phosphate Receptor 4 (S1P4). [Related pubchem assays: 1509 (Primary screen.), 1523 (Confirmation screen in triplicates.)]; format: functional
# T11 sequence (O95977 whole entry): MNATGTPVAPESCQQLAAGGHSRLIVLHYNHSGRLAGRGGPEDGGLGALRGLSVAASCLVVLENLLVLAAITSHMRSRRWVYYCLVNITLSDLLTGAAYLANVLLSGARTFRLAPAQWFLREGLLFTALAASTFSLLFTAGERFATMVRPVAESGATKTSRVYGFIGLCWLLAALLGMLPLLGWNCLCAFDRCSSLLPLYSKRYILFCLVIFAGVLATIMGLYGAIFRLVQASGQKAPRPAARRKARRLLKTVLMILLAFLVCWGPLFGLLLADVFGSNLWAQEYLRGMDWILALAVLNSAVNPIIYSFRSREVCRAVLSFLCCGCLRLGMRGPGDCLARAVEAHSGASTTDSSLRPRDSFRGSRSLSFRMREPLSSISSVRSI
# [22] = target: Sphingosine 1-phosphate receptor 1 (Homo sapiens, UniProt P21453); experiment: Fluorescence-based counterscreen assay for S1P4 agonists: Cell-based dose response high throughput screening assay to identify agonists of the Sphingosine 1-Phosphate Receptor 1 (S1P1). [Related pubchem assays (depositor defined):AID1509, AID1523, AID1801, AID463107, AID463118, AID463119, AID463122, AID463123, AID463129, AID463225, AID504400, AID504460]; format: functional
# [23] = target: T12, Carboxy-terminal domain RNA polymerase II polypeptide A small phosphatase 1 (Homo sapiens, UniProt Q9GZU7); experiment: CTDSP1 inhibitors, concentration-response, biochemical, absorbance readout, ultra-high-throughput screen actives (AID 540297); format: functional
# T12 sequence (Q9GZU7 whole entry): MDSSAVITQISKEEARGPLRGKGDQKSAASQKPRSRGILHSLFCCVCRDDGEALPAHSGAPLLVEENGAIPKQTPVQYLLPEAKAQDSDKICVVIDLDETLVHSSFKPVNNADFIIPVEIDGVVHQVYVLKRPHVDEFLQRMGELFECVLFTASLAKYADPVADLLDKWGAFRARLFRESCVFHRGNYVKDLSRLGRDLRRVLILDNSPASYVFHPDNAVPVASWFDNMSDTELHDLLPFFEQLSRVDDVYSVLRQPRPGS
# [24] = target: T13, Dual specificity protein phosphatase 3 (Homo sapiens, UniProt P51452); experiment: VHR1 phosphatase inhibitors, biochemical (AID 1878)
# [25] = target: T14, Dual specificity protein phosphatase 6 (Rattus norvegicus, UniProt Q64346); experiment: inhibition of rat DUSP6 enzyme activity – biochemical, in vitro, primary screen (AID 425)
# T14 sequence (Q64346 whole entry): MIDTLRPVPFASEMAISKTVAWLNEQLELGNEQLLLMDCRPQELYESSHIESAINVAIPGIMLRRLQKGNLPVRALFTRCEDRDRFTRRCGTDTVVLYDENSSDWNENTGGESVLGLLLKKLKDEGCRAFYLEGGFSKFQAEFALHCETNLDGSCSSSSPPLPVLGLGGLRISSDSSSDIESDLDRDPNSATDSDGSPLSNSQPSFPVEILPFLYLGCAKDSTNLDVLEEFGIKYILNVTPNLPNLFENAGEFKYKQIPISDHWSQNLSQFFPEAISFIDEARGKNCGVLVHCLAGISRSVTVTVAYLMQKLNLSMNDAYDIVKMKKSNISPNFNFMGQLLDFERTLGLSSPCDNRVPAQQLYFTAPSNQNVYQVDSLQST
# [26] = target: T13, Dual specificity protein phosphatase 3; experiment: VHR1 phosphatase inhibitors, primary screen, biochemical, absorbance, uHTS (AID 1654)
# T13 sequence (P51452 whole entry): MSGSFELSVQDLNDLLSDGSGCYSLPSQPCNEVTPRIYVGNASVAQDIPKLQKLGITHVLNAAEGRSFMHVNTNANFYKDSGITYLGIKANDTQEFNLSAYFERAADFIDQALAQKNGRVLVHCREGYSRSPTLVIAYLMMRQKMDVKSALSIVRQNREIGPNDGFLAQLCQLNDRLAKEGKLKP
# T9 sequence (P34972 whole entry): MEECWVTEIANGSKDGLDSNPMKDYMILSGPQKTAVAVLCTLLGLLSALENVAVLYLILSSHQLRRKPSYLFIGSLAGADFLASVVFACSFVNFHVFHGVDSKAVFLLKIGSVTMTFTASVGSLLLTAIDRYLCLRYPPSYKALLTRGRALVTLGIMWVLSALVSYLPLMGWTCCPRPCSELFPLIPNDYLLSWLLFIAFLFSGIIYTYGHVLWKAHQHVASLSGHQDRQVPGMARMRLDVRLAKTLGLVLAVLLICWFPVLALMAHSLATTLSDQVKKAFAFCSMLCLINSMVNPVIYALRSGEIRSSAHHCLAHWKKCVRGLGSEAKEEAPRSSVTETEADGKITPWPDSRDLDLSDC
# T1 sequence (O43613 whole entry): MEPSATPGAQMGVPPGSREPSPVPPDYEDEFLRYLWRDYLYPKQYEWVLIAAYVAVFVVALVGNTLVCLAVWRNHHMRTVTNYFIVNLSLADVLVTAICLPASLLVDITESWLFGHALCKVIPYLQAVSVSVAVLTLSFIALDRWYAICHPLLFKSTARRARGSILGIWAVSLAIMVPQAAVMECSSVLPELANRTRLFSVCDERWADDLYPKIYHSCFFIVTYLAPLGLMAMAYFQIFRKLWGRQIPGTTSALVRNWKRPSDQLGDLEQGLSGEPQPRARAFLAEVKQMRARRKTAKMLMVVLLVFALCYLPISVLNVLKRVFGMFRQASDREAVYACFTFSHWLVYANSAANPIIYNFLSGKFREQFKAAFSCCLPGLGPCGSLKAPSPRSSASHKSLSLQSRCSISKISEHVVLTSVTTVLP
# T8 sequence (Q9HC97 whole entry): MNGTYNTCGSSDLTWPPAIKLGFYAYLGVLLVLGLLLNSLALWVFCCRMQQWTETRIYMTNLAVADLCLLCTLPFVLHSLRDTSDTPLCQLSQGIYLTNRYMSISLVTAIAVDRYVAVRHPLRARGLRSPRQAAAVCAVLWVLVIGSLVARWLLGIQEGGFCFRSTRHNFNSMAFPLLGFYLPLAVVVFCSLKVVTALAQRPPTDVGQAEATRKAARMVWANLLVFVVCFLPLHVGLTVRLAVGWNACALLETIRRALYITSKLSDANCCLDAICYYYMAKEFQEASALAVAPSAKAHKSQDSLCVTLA
# T7 sequence (P65502 whole entry): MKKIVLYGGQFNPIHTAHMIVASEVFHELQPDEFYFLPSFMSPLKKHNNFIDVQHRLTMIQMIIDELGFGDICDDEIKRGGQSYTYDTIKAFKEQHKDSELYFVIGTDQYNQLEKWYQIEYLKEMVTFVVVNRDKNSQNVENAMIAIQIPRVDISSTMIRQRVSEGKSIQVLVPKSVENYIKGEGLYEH
# T5 sequence (Q9Y2T6 whole entry): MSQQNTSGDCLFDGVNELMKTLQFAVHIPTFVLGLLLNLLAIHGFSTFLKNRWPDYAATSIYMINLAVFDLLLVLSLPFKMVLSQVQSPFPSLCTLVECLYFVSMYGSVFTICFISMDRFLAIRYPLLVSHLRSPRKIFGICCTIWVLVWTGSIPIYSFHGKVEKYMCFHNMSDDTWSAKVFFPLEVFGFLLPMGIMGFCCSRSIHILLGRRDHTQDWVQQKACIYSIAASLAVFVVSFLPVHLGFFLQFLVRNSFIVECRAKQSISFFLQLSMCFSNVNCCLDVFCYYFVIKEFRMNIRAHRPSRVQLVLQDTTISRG
# T10 sequence (P21554 whole entry): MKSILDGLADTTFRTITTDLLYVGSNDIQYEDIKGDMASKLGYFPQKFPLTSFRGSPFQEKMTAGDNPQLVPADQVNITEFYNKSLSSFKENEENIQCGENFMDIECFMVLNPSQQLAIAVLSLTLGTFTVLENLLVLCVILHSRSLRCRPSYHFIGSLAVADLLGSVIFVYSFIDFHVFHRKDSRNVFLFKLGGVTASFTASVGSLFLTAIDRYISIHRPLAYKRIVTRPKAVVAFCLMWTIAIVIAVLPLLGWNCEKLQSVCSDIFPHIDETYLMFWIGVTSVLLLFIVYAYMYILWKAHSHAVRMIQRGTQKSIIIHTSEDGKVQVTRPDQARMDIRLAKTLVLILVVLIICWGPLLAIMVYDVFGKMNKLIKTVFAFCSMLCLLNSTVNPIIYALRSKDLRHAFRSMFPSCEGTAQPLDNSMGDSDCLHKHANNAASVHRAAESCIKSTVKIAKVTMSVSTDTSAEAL
# Chain of Sphingosine 1-phosphate receptor 1 (P21453 whole entry, the tested form may be a part): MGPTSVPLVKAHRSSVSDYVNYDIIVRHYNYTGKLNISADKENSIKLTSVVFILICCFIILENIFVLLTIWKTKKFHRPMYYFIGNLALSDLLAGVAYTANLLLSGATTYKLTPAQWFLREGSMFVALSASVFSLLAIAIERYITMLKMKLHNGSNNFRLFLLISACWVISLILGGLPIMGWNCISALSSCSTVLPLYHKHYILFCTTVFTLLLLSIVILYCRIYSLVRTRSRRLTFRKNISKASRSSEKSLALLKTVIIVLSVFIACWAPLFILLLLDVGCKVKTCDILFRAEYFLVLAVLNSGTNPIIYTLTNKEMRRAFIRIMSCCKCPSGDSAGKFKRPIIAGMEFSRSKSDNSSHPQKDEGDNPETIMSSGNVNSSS
compound,measurement,setting,value
CC(=O)NC(N=C(S)Nc1ccc(N=Nc2ccccc2)cc1)C(Cl)(Cl)Cl (stereo unspecified),IC50,[1],6.68 µM (active)
same,IC50,[2],42.3 µM (inactive)
same,IC50,[3],> 66.2 µM (inactive)
same,IC50,[4],> 5.53 µM (active)
Nc1nnnn1/N=C/c1cccc(OCc2ccccc2Cl)c1,AC50,[5],2.78 µM (active)
same,AC50,[6],> 350 µM (inactive)
CC1=NN(C(=O)c2ccc(Cn3ccc([N+](=O)[O-])n3)cc2)C(O)(C(F)(F)F)C1 (stereo unspecified),IC50,[7],> 79.4 µM (inactive)
same,IC50,[8],> 79.4 µM (inactive)
same,IC50,[9],> 79.4 µM (inactive)
Cc1cc(C)c2nc(-c3cccnc3)cc(C(=O)Nc3ccc(S(=O)(=O)Nc4onc(C)c4C)cc3)c2c1,IC50,[10],0.457 µM (active)
same,IC50,[11],> 50 µM (not active)
same,IC50,[12],12.5 µM (active)
same,IC50,[13],1.55 µM (active)
same,IC50,[14],> 32 µM (inactive)
same,EC50,[15],> 32 µM (inactive)
same,IC50,[16],> 32 µM (inactive)
same,IC50,[17],> 32 µM (inactive)
same,EC50,[18],> 32 µM (inactive)
same,EC50,[19],> 32 µM (inactive)
same,IC50,[20],3.76 µM (active)
Cc1ccc2nc3c(cc(C#N)c(=O)n3-c3nccs3)c(=O)n2c1,EC50,[21],3.72 µM (active)
same,EC50,[22],10.6 µM (inactive)
CN1C(=O)/C(=C2\SC(=S)N(CCCCCC(=O)O)C2=O)c2ccccc21,IC50,[23],0.836 µM (active)
same,IC50,[24],2.4 µM (active)
same,IC50,[25],> 158 µM (not active)
same,IC50,[26],5.97 µM (active)
